Experimental findings from patent US11981643B1, “Oxoimidazolidine derivatives as anti-tubercular agents” (priority 2023, dated 2024) are described below.

In brackets after ≈: the same amount, converted by molar mass. A value given as a limit tells only on which side of the number the result lay.

The assay relates to MDR strain of MTB. The assay can be described thus: microbe, parasite or virus in culture. Particulars: Mycobacterium tuberculosis, 192 h, read-out: Anti-tubercular activity against Mycobacterium tuberculosis, MDR (minimum inhibitory concentration, MIC). Type of assay: cell-based.
As to `CN1C(=Cc2ccc(-c3ccccc3[N+](=O)[O-])o2)C(=O)N/C1=N\C(=S)Nc1ccc(F)cc1` (stereo in doubt) [Compound 4v, 1-(4-Fluorophenyl)-3-[(2E,5Z)-1-methyl-5-{[5-(2-nitrophenyl)furan-2-yl]methylidene}-4-oxoimidazolidin-2-ylidene]thiourea], the MIC was > 32 µg/mL.

On to `CN1C(=Cc2ccc([N+](=O)[O-])cc2)C(=O)N/C1=N\C(=S)Nc1cccc(Cl)c1` (stereo in doubt) [Compound 4q, 1-(3-Chlorophenyl)-3-[(2E,5Z)-1-methyl-5-(4-nitrobenzylidene)-4-oxoimidazolidin-2-ylidene]thiourea], for which the MIC amounted to 32 µg/mL (≈ 76.9 µM).

Turning to `CN1/C(=C\c2ccc(Br)o2)C(=O)N/C1=N\C(=O)Nc1cccc(F)c1` [Compound 4g, 1-{(2E,5Z)-5-[(5-Bromofuran-2-yl)methylidene]-1-methyl-4-oxoimidazolidin-2-ylidene}-3-(3-fluorophenyl)urea], the MIC is 32 µg/mL (≈ 78.6 µM).
